Measurements: patent publication US12617773B2, “Azetidin-3-ylmethanol derivatives as CCR6 receptor modulators” (Idorsia Pharmaceuticals Ltd, priority 2020, dated 2026)

biological target: T1, human CCR6 (Homo sapiens, UniProt P51684); test: FLIPR assay (inhibition of CCL20-induced calcium signal); assay type: cell-based; conditions: HEK-293 cells expressing human CCR6; mean values where determined several times; read-out: FLIPR IC50
T1 construct: expressed in transfected cells; host or cells: HEK-293
T1 sequence (P51684 1-374): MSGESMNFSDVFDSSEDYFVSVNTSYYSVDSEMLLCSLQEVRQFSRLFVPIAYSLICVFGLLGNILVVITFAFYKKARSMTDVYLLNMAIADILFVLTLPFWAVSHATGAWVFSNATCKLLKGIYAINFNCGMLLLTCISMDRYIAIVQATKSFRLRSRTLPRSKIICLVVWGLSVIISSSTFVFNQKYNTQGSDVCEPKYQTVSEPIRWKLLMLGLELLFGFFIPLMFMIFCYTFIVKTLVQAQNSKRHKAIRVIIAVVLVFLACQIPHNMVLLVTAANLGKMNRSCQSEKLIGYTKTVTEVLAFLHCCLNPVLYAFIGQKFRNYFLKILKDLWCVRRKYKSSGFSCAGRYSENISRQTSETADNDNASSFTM
How it was run: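 Dye-loaded HEK-293 cells expressing human CCR6 were preincubated with compound for 30 min at room temperature in the dark, then challenged with 10 nM CCL20 (final). Fluorescence was tracked on FLIPR, and baseline-subtracted peak emission over base after agonist addition gave inhibition dose-response curves for IC50.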

SMILES	IC50 [nM]
CC(C)c1ccc([C@](O)(c2cncc(CCOCc3ccccc3)c2)C2(C)CN(C)C2)cc1 [Example 326, (R)-[5-(2-Benzyloxy-ethyl)-pyridin-3-yl]-(1,3-dimethyl-azetidin-3-yl)-(4-isopropyl-phenyl)-methanol]	83.3
CC(C)c1ccc([C@](O)(c2cncc(C3CCC(C)(O)CC3)c2)C2(C)CN(C)C2)cc1 (stereo partly drawn) [Example 327, 4-{5-[(R)-(1,3-Dimethyl-azetidin-3-yl)-hydroxy-(4-isopropyl-phenyl)-methyl]-pyridin-3-yl}-1-methyl-cyclohexanol]	168
CC(C)c1ccc([C@](O)(c2cncc(C3CC3C(C)(C)O)c2)C2(C)CN(C)C2)cc1 (stereo partly drawn) [Example 328, 2-(2-{5-[(R)-(1,3-Dimethyl-azetidin-3-yl)-hydroxy-(4-isopropyl-phenyl)-methyl]-pyridin-3-yl}-cyclopropyl)-propan-2-ol]	187
CC(C)c1ccc([C@](O)(c2ccnc(-c3noc(C4CCOCC4)n3)c2)C2(C)CN(C)C2)cc1 [Example 329, (S)-(1,3-Dimethyl-azetidin-3-yl)-(4-isopropyl-phenyl)-{2-[5-(tetrahydro-pyran-4-yl)-[1,2,4]oxadiazol-3-yl]-pyridin-4-yl}-methanol]	485
CC(C)c1ccc(C(O)(c2cnc(N3CCCC3)nc2)C2(C)CN(C)C2)cc1 (centres unmarked) [Example 330, (1,3-Dimethyl-azetidin-3-yl)-(4-isopropyl-phenyl)-(2-pyrrolidin-1-yl-pyrimidin-5-yl)-methanol]	143
CC(C)c1ccc(C(O)(c2cncc(N3CCCC3)n2)C2(C)CN(C)C2)cc1 (centres unmarked) [Example 331, (1,3-Dimethyl-azetidin-3-yl)-(4-isopropyl-phenyl)-(6-pyrrolidin-1-yl-pyrazin-2-yl)-methanol]	50.1
[2H]C([2H])([2H])C(=O)NC1(c2nc(-c3cncc([C@@](O)(c4ccc(C(C)C)cc4)C4(C)CN(C)C4)c3)no2)CC1 [Example 332]	290
[2H]C([2H])([2H])C(=O)N(C)C1(c2nc(-c3cncc([C@@](O)(c4ccc(C(C)C)cc4)C4(C)CN(C)C4)c3)no2)CC1 [Example 333]	113
[2H]C([2H])([2H])C(=O)N(C)Cc1nc(-c2cncc([C@@](O)(c3ccc(C(C)C)cc3)C3(C)CN(C)C3)c2)no1 [Example 334]	216
CC(C)c1ccc([C@](O)(c2cncc(-c3noc(CNC(=O)CO)n3)c2)C2(C)CN(C)C2)cc1 [Example 335]	337
[2H]C([2H])([2H])C(=O)NCc1nc(-c2cncc([C@@](O)(c3ccc(C(C)C)cc3)C3(C)CN(C)C3)c2)no1 [Example 336]	207
CC(C)c1ccc([C@](O)(c2cncc(-c3noc(CC(C)(C)O)n3)c2)C2(C)CN(C(C)C)C2)cc1 [Example 337, 1-(3-{5-[(R)-Hydroxy-(1-isopropyl-3-methyl-azetidin-3-yl)-(4-isopropyl-phenyl)-methyl]-pyridin-3-yl}-[1,2,4]oxadiazol-5-yl)-2-methyl-propan-2-ol]	95.1
CCN1CC(C)([C@](O)(c2ccc(C(C)C)cc2)c2cncc(-c3noc(CC(C)(C)O)n3)c2)C1 [Example 338, 1-(3-{5-[(R)-(1-Ethyl-3-methyl-azetidin-3-yl)-hydroxy-(4-isopropyl-phenyl)-methyl]-pyridin-3-yl}-[1,2,4]oxadiazol-5-yl)-2-methyl-propan-2-ol]	93.8
CC(C)c1ccc([C@](O)(c2cncc(-c3noc(C(C)(C)O)n3)c2)C2(C)CN(C(C)C)C2)cc1 [Example 339, 2-(3-{5-[(R)-Hydroxy-(1-isopropyl-3-methyl-azetidin-3-yl)-(4-isopropyl-phenyl)-methyl]-pyridin-3-yl}-[1,2,4]oxadiazol-5-yl)-propan-2-ol]	100
CCN1CC(C)([C@](O)(c2ccc(C(C)C)cc2)c2cncc(-c3noc(C(C)(C)O)n3)c2)C1 [Example 340, 2-(3-{5-[(R)-(1-Ethyl-3-methyl-azetidin-3-yl)-hydroxy-(4-isopropyl-phenyl)-methyl]-pyridin-3-yl}-[1,2,4]oxadiazol-5-yl)-propan-2-ol]	79.4
CC(C)c1ccc([C@](O)(c2cncc(-c3nc(C4CCN(C(=O)OCc5ccccc5)CC4)no3)c2)C2(C)CN(C)C2)cc1 [Example 341]	66.6
CC(=O)N1CCC(c2noc(-c3cncc([C@@](O)(c4ccc(C(C)C)cc4)C4(C)CN(C)C4)c3)n2)CC1 [Example 342]	154
[2H]C([2H])([2H])C(=O)N1CC(c2nc(-c3cncc([C@@](O)(c4ccc(C(C)C)cc4)C4(C)CN(C)C4)c3)no2)C1 [Example 343]	532
[2H]C([2H])([2H])C(=O)N1CC(C)(c2nc(-c3cncc([C@@](O)(c4ccc(C(C)C)cc4)C4(C)CN(C)C4)c3)no2)C1 [Example 344]	441
[2H]C([2H])([2H])C(=O)N1CC(F)(c2nc(-c3cncc([C@@](O)(c4ccc(C(C)C)cc4)C4(C)CN(C)C4)c3)no2)C1 [Example 345]	252
CC(C)c1ccc([C@](O)(c2cncc(-c3noc(C(C)(C)N4CCOCC4)n3)c2)C2(C)CN(C)C2)cc1 [Example 346]	62.5
CC(C)c1ccc([C@](O)(c2cncc(-c3noc(C4CCN(C)C(=O)C4)n3)c2)C2(C)CN(C)C2)cc1 (some centres unmarked) [Example 347]	120
CC(=O)N1CC[C@H](c2nc(-c3cncc([C@@](O)(c4ccc(C(C)C)cc4)C4(C)CN(C)C4)c3)no2)C1 [Example 348]	135
CC(=O)N1CC[C@@H](c2nc(-c3cncc([C@@](O)(c4ccc(C(C)C)cc4)C4(C)CN(C)C4)c3)no2)C1 [Example 349]	113

SMILES	IC50 [nM]
CC(=O)NC(C)(C)c1nc(-c2cncc([C@@](O)(c3ccc(C(C)C)cc3)C3(C)CN(C)C3)c2)no1 [Example 350]	242
CC(C)c1ccc([C@](O)(c2cncc(-c3noc(C4CCN(Cc5ccccc5)C4=O)n3)c2)C2(C)CN(C)C2)cc1 (some centres unmarked) [Example 351]	27.6
CC(C)c1ccc([C@](O)(c2cncc(-c3noc(C4(C)CCN(C)C4=O)n3)c2)C2(C)CN(C)C2)cc1 (some centres unmarked) [Example 352]	110
CC(C)CN1CC(c2nc(-c3cncc([C@@](O)(c4ccc(C(C)C)cc4)C4(C)CN(C)C4)c3)no2)CC1=O (some centres unmarked) [Example 353]	40.3
CC(C)c1ccc([C@](O)(c2cncc(-c3noc(C4CC(=O)N(Cc5ccco5)C4)n3)c2)C2(C)CN(C)C2)cc1 (some centres unmarked) [Example 354]	29
CC(C)c1ccc([C@](O)(c2cncc(-c3noc(C4CC(=O)N(c5ccccc5)C4)n3)c2)C2(C)CN(C)C2)cc1 (some centres unmarked) [Example 355]	24.8
CC(C)c1ccc([C@](O)(c2cncc(-c3noc(C4CC(=O)N(Cc5ccccc5)C4)n3)c2)C2(C)CN(C)C2)cc1 (some centres unmarked) [Example 356]	12.7
CC(C)c1ccc([C@](O)(c2cncc(-c3noc(C4CCC(=O)N4c4ccccc4)n3)c2)C2(C)CN(C)C2)cc1 (some centres unmarked) [Example 357]	26.1
CC(C)c1ccc([C@](O)(c2cncc(-c3noc(C4CNC(=O)C4)n3)c2)C2(C)CN(C)C2)cc1 (some centres unmarked) [Example 358]	131
CC(C)c1ccc([C@](O)(c2cncc(-c3noc([C@@H]4CCC(=O)N4)n3)c2)C2(C)CN(C)C2)cc1 [Example 359]	234
CC(C)c1ccc([C@](O)(c2cncc(-c3noc([C@H]4CCC(=O)N4)n3)c2)C2(C)CN(C)C2)cc1 [Example 360]	292
CC(C)c1ccc([C@](O)(c2cncc(-c3noc([C@@H]4CCCC(=O)N4)n3)c2)C2(C)CN(C)C2)cc1 [Example 361]	164
CC(C)c1ccc([C@](O)(c2cncc(-c3noc(C4CCNC(=O)C4)n3)c2)C2(C)CN(C)C2)cc1 (some centres unmarked) [Example 362]	90
CC(C)c1ccc([C@](O)(c2cncc(-c3noc([C@@H]4CC(=O)N4)n3)c2)C2(C)CN(C)C2)cc1 [Example 363]	178
CC(C)c1ccc([C@](O)(c2cncc(-c3noc([C@@H]4CNC4=O)n3)c2)C2(C)CN(C)C2)cc1 [Example 364]	142
CC(C)c1ccc([C@](O)(c2cncc(-c3noc(C4CCNCC4)n3)c2)C2(C)CN(C)C2)cc1 [Example 367]	321
CC(C)c1ccc([C@](O)(c2cncc(-c3noc(C4(C)CCNCC4)n3)c2)C2(C)CN(C)C2)cc1 [Example 368]	271
CC(C)c1ccc([C@](O)(c2cncc(-c3noc(C4(F)CCNCC4)n3)c2)C2(C)CN(C)C2)cc1 [Example 369]	187
CCCC(=O)N1CCC(c2nc(-c3cncc([C@@](O)(c4ccc(C(C)C)cc4)C4(C)CN(C)C4)c3)no2)CC1 [Example 370, 1-[4-(3-{5-[(R)-(1,3-Dimethyl-azetidin-3-yl)-hydroxy-(4-isopropyl-phenyl)-methyl]-pyridin-3-yl}-[1,2,4]oxadiazol-5-yl)-piperidin-1-yl]-butan-1-one]	65.9
CC(C)c1ccc([C@](O)(c2cncc(-c3noc(C4CCN(C(=O)C(C)(C)C)CC4)n3)c2)C2(C)CN(C)C2)cc1 [Example 371]	49.7
COCC(=O)N1CCC(c2nc(-c3cncc([C@@](O)(c4ccc(C(C)C)cc4)C4(C)CN(C)C4)c3)no2)CC1 [Example 372]	103
COCCC(=O)N1CCC(c2nc(-c3cncc([C@@](O)(c4ccc(C(C)C)cc4)C4(C)CN(C)C4)c3)no2)CC1 [Example 373]	88.9
CC(C)c1ccc([C@](O)(c2cncc(-c3noc(C4CCN(C(=O)C5CC5)CC4)n3)c2)C2(C)CN(C)C2)cc1 [Example 374]	39
